The results in this text go back to US20240174662A1, “SMALL MOLECULE INHIBITORS OF SALT INDUCIBLE KINASES” (Janssen Biotech, Inc., priority 2021, published 2024).

Sequence of SIK2 (Q9H0K1 whole entry, species assumed): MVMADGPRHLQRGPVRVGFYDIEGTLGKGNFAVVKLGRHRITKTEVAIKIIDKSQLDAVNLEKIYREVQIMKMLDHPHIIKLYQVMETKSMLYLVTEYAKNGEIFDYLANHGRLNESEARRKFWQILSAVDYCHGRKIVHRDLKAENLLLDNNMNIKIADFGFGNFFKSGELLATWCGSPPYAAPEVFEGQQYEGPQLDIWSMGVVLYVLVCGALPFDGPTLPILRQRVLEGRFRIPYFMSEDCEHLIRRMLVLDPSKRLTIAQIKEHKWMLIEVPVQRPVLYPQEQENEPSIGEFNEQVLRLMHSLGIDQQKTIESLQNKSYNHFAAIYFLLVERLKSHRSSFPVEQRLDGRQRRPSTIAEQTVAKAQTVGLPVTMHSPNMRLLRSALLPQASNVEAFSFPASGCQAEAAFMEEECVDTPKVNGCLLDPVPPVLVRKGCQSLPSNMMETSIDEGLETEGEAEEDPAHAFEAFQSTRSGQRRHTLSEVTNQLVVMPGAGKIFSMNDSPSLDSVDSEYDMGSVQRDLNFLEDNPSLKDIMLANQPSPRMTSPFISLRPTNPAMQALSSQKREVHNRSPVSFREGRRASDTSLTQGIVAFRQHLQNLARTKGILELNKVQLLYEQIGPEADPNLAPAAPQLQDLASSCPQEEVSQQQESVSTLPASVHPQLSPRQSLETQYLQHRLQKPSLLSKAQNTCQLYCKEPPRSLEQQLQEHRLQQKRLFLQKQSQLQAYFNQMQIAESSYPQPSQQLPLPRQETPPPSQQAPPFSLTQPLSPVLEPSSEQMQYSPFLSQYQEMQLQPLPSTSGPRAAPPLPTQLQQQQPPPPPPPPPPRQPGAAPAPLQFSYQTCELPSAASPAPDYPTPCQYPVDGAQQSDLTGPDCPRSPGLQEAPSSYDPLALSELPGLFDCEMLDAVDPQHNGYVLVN

In the experiment the target is SIK2 (Homo sapiens (Human), UniProt Q9H0K1). The experiment can be described thus: SIK2 Enzymatic Assay Version 2 (High ATP). It is filed as biochemical. The settings on record: 3 mM ATP and 200 μM HDAC5tide final, ADP-Glo Max luminescence. Put shortly:
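Run at room temperature; SIK2 enzyme at 6 nM (2× final) preincubated with compound 30 min before reaction. ADP formation detected by ADP-Glo Max (2 h reagent, 1 h detection) with luminescence read-out.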
With `CN1CC(F)(COc2cnn(C)c2-c2ccn3nc(NC(=O)C4CC4)cc3c2)C1` [Example 405, N-[5-[4-[(3-fluoro-1-methyl-azetidin-3-yl)methoxy]-2-methyl-pyrazol-3-yl]pyrazolo[1,5-a]pyridin-2-yl]cyclopropanecarboxamide], it took 98.3 nM to reach half-maximal inhibition (IC50). This lies in the double-digit nanomolar range. Then `COc1cnc(Nc2cc3cc(-c4c(OC[C@H]5CCN5C)cnn4C)ccn3n2)cn1` [Example 154, N-(5-methoxypyrazin-2-yl)-5-[2-methyl-4-[[(2R)-1-methylazetidin-2-yl]methoxy]pyrazol-3-yl]pyrazolo[1,5-a]pyridin-2-amine], with 7.9 nM; and `Cn1ncc(OC[C@H]2CCN2CC2COC2)c1-c1ccn2nc(NC(=O)C3CC3)cc2c1` [Example 433, N-[5-[2-methyl-4-[[(2R)-1-(oxetan-3-ylmethyl)azetidin-2-yl]methoxy]pyrazol-3-yl]pyrazolo[1,5-a]pyridin-2-yl]cyclopropanecarboxamide], with 122 nM; and `Cc1cc(Nc2cc3cc(-c4c(OCC(N)C5(C)CC5)cnn4C)ccn3n2)nc(C)n1` (stereo not drawn) [Example 309, 5-[4-[2-amino-2-(1-methylcyclopropyl)ethoxy]-2-methyl-pyrazol-3-yl]-N-(2,6-dimethylpyrimidin-4-yl)pyrazolo[1,5-a]pyridin-2-amine], with 2.9 nM. Take `CN1CC[C@H](Oc2cnn(C)c2-c2ccn3nc(Nc4cc5ccccc5nn4)cc3c2)C1` [Example 342, N-[5-[2-methyl-4-[(3S)-1-methylpyrrolidin-3-yl]oxy-pyrazol-3-yl]pyrazolo[1,5-a]pyridin-2-yl]cinnolin-3-amine]: half-maximal inhibition (IC50) was put at 68.8 nM. Turning to `COC1(COc2noc(C)c2-c2ccn3nc(NC(=O)C4CC4)cc3c2)CCNC1` (racemic) [Example 205, (RS)—N-[5-[3-[(3-methoxypyrrolidin-3-yl)methoxy]-5-methyl-isoxazol-4-yl]pyrazolo[1,5-a]pyridin-2-yl]cyclopropanecarboxamide], the half-maximal inhibitory concentration (IC50) was found to be 23.5 nM.

Consider `C[C@H]1CN(C)C[C@H]1OCc1cnn(C)c1-c1ccn2nc(NC(=O)C3CC3)cc2c1` (single isomer, unassigned) [Example 195, (3*S,4*S)—N-[5-[4-[(1,4-dimethylpyrrolidin-3-yl)oxymethyl]-2-methyl-pyrazol-3-yl]pyrazolo[1,5-a]pyridin-2-yl]cyclopropanecarboxamide], for which 3.5 nM corresponded to half-maximal inhibition (IC50). `Cc1cc(Nc2cc3cc(-c4c(OC[C@@H]5CC[C@@H]5O)cnn4C)ccn3n2)nc(C)n1` (single isomer, unassigned) [Example 448, (1*S,2*S)-2-[[5-[2-[(2,6-dimethylpyrimidin-4-yl)amino]pyrazolo[1,5-a]pyridin-5-yl]-1-methyl-pyrazol-4-yl]oxymethyl]cyclobutanol] showed an IC50 of 115 nM. `Cc1onc(O[C@@H]2CNC[C@@H]2F)c1-c1ccn2nc(NC(=O)C3CC3)cc2c1` (racemic) [Example 208, (rac-cis)-N-[5-[3-(4-fluoropyrrolidin-3-yl)oxy-5-methyl-isoxazol-4-yl]pyrazolo[1,5-a]pyridin-2-yl]cyclopropanecarboxamide]: the IC50 is 11.5 nM.

For the compound `CN1CC[C@@H]1COc1cnn(C)c1-c1ccn2nc(Nc3ccc4c(n3)CCOC4)cc2c1` [Example 114, N-[5-[2-methyl-4-[[(2R)-1-methylazetidin-2-yl]methoxy]pyrazol-3-yl]pyrazolo[1,5-a]pyridin-2-yl]-7,8-dihydro-5H-pyrano[4,3-b]pyridin-2-amine], the midpoint of inhibition, the IC50, lay at 1.1 nM. Turning to `Cn1ncc(O[C@H]2CCNC2)c1-c1ccc2nc(NC(=O)C3CC3)cn2c1` [Example 471, N-[6-[2-methyl-4-[(3S)-pyrrolidin-3-yl]oxy-pyrazol-3-yl]imidazo[1,2-a]pyridin-2-yl]cyclopropanecarboxamide], inhibition was half-maximal at 55.8 nM (IC50). Compound `COC1(COc2cnn(C)c2-c2ccn3nc(NC(=O)C4CC4)cc3c2)CN(C)C1` [Example 406, N-[5-[4-[(3-methoxy-1-methyl-azetidin-3-yl)methoxy]-2-methyl-pyrazol-3-yl]pyrazolo[1,5-a]pyridin-2-yl]cyclopropanecarboxamide] had an IC50 of 174 nM.

`Cc1onc(O[C@H]2CCN(C)C2)c1-c1ccn2nc(NC(=O)C3CC3)cc2c1` [Example 382, N-[5-[5-methyl-3-[(3S)-1-methylpyrrolidin-3-yl]oxy-isoxazol-4-yl]pyrazolo[1,5-a]pyridin-2-yl]cyclopropanecarboxamide] had an IC50 of 96.1 nM. `C[C@@H]1C[C@H](Oc2cnn(C)c2-c2ccn3nc(NC(=O)C4CC4)cc3c2)CN1C` [Example 336, N-[5-[4-[(3S,5R)-1,5-dimethylpyrrolidin-3-yl]oxy-2-methyl-pyrazol-3-yl]pyrazolo[1,5-a]pyridin-2-yl]cyclopropanecarboxamide] came in with an IC50 of 66.4 nM. `COC1(COc2noc(C)c2-c2ccn3nc(Nc4cc(C)nc(C)n4)cc3c2)CNC1` [Example 30, N-(2,6-dimethylpyrimidin-4-yl)-5-[3-[(3-methoxyazetidin-3-yl)methoxy]-5-methyl-isoxazol-4-yl]pyrazolo[1,5-a]pyridin-2-amine] yielded an IC50 of 5.2 nM. In turn, `Cc1cc(Nc2cc3cc(-c4c(OC[C@]5(C)CCCO5)cnn4C)ccn3n2)nc(C)n1` (single isomer, unassigned) [Example 447, (*S)—N-(2,6-dimethylpyrimidin-4-yl)-5-[2-methyl-4-[(2-methyltetrahydrofuran-2-yl)methoxy]pyrazol-3-yl]pyrazolo[1,5-a]pyridin-2-amine] gave an IC50 of 69.7 nM. Regarding `Cc1cncc(Nc2cc3cc(-c4c(CO[C@@H]5CN(C)C[C@H]5C)cnn4C)ccn3n2)n1` (stereo in doubt) [Example 375, Trans-*R, *S-5-[4-[(1,4-dimethylpyrrolidin-3-yl)oxymethyl]-2-methyl-pyrazol-3-yl]-N-(6-methylpyrazin-2-yl)pyrazolo[1,5-a]pyridin-2-amine], it took 3.1 nM to reach half-maximal inhibition (IC50). Then `Cc1snc(OC[C@H]2CNCCO2)c1-c1ccn2nc(NC(=O)C3CC3)cc2c1` [Example 331, N-[5-[5-methyl-3-[[(2R)-morpholin-2-yl]methoxy]isothiazol-4-yl]pyrazolo[1,5-a]pyridin-2-yl]cyclopropanecarboxamide], with 32.4 nM. Consider `Cc1onc(OC[C@H]2CCN2CC#N)c1-c1ccn2nc(NC(=O)C3CC3)cc2c1` [Example 213, N-[5-[3-[[(2R)-1-(cyanomethyl)azetidin-2-yl]methoxy]-5-methyl-isoxazol-4-yl]pyrazolo[1,5-a]pyridin-2-yl]cyclopropanecarboxamide], for which the IC50 was 15.3 nM. The same measure for `Cc1cc(Nc2cc3cc(-c4c(OC[C@H]5CCN5)cnn4C)ccn3n2)nc(C)n1` [Example 42, 5-[4-[[(2R)-azetidin-2-yl]methoxy]-2-methyl-pyrazol-3-yl]-N-(2,6-dimethylpyrimidin-4-yl)pyrazolo[1,5-a]pyridin-2-amine]: 14.6 nM; for `CN1CC(Oc2cnn(C)c2-c2ccn3nc(NC(=O)C4CC4)cc3c2)C1` [Example 399, N-[5-[2-methyl-4-(1-methylazetidin-3-yl)oxy-pyrazol-3-yl]pyrazolo[1,5-a]pyridin-2-yl]cyclopropanecarboxamide]: 174 nM. With `C[C@H]1CN(C)[C@H]1COc1cnn(C)c1-c1ccn2nc(NC(=O)C3CC3)cc2c1` [Example 437, N-[5-[4-[[(2R,3S)-1,3-dimethylazetidin-2-yl]methoxy]-2-methyl-pyrazol-3-yl]pyrazolo[1,5-a]pyridin-2-yl]cyclopropanecarboxamide], the IC50 is 85.6 nM. Compound `Cc1nccc(Nc2cc3cc(-c4c(OC[C@H]5CCN5C)cnn4C)ccn3n2)n1` [Example 64, 5-[2-methyl-4-[[(2R)-1-methylazetidin-2-yl]methoxy]pyrazol-3-yl]-N-(2-methylpyrimidin-4-yl)pyrazolo[1,5-a]pyridin-2-amine] returned a concentration for half-maximal inhibition (IC50) of 2 nM.

Consider `Cc1onc(OC[C@H]2CCCN2C)c1-c1ccn2nc(NC(=O)C3CC3)cc2c1` [Example 388, N-[5-[5-methyl-3-[[(2R)-1-methylpyrrolidin-2-yl]methoxy]isoxazol-4-yl]pyrazolo[1,5-a]pyridin-2-yl]cyclopropanecarboxamide], for which the IC50 was 146 nM. On to `Cn1ncc(OC[C@H]2CCN2)c1-c1ccn2nc(Nc3ccc(C4CC4)nn3)cc2c1` [Example 394, 5-[4-[[(2R)-azetidin-2-yl]methoxy]-2-methyl-pyrazol-3-yl]-N-(6-cyclopropylpyridazin-3-yl)pyrazolo[1,5-a]pyridin-2-amine], for which the IC50 was 103 nM. `Cc1onc(OC[C@H]2CCN2C)c1-c1ccn2nc(NC(=O)C3CC3)cc2c1` [Example 87, N-[5-[5-methyl-3-[[(2R)-1-methylazetidin-2-yl]methoxy]isoxazol-4-yl]pyrazolo[1,5-a]pyridin-2-yl]cyclopropanecarboxamide] had an IC50 of 16.5 nM. Compared with the last compound, the IC50 is about 6.2-fold lower. `Cc1onc(O[C@@H]2CCNC[C@H]2F)c1-c1ccn2nc(NC(=O)C3CC3)cc2c1` (single isomer, unassigned) [Example 216, N-(5-(3-(((3*R,4*S)-3-fluoropiperidin-4-yl)oxy)-5-methylisoxazol-4-yl)pyrazolo[1,5-a]pyridin-2-yl)cyclopropanecarboxamide] registered an IC50 of 29.6 nM. Compared with the last compound, the IC50 is about 1.8-fold higher. On to `Cn1ncc(O[C@H]2CCNC2)c1-c1ccn2nc(NC(=O)C3CC3)cc2c1` [Example 236, N-[5-[2-methyl-4-[(3S)-pyrrolidin-3-yl]oxy-pyrazol-3-yl]pyrazolo[1,5-a]pyridin-2-yl]cyclopropanecarboxamide], for which half-maximal inhibition (IC50) required 29.1 nM. `Cn1ncc(OC[C@H]2C[C@@H](N)C2)c1-c1ccn2nc(NC(=O)C3CC3)cc2c1` [Example 400, N-[5-[4-[(3-aminocyclobutyl)methoxy]-2-methyl-pyrazol-3-yl]pyrazolo[1,5-a]pyridin-2-yl]cyclopropanecarboxamide]: the IC50 stood at 108 nM. Compared with the last compound, the IC50 is about 3.7-fold higher. For the compound `Cc1onc(OCC2(F)CNC2)c1-c1ccn2nc(NC(=O)C3CC3)cc2c1` [Example 83, N-[5-[3-[(3-fluoroazetidin-3-yl)methoxy]-5-methyl-isoxazol-4-yl]pyrazolo[1,5-a]pyridin-2-yl]cyclopropanecarboxamide], half-maximal inhibition (IC50) was put at 10.9 nM.
